The source of these data is ChEMBL document CHEMBL1145902, “Design and synthesis of a potent and selective triazolone-based peroxisome proliferator-activated receptor alpha agonist” (J Med Chem, 2003).

What is called EC50 is the concentration at which the effect is half-maximal. High values mean a less potent agent, low ones a more potent agent. What is called ED50 is the midpoint of the dose-response relation. Usually IC50 stands for the concentration that inhibits the measured activity by half. Lower therefore signals inhibition by little substance.

Test [1] deals with T1, Peroxisome proliferator-activated receptor alpha (Homo sapiens, UniProt Q07869).
T1 sequence (Q07869 whole entry): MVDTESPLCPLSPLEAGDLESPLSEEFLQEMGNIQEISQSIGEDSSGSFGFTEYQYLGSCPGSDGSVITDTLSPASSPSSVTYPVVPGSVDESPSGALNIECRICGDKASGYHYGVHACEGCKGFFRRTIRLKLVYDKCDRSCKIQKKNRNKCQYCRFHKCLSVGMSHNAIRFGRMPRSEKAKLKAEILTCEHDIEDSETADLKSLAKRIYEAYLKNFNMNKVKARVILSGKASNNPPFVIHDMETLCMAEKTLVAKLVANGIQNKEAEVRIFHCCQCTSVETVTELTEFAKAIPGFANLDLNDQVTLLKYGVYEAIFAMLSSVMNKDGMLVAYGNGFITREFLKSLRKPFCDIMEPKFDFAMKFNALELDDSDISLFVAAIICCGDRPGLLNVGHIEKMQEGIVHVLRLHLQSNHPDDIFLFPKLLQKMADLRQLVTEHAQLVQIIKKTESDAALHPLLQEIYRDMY
It counts as functional.

Test [2] concerns the target T2, Peroxisome proliferator-activated receptor gamma (Homo sapiens, UniProt P37231).
T2 sequence (P37231 whole entry): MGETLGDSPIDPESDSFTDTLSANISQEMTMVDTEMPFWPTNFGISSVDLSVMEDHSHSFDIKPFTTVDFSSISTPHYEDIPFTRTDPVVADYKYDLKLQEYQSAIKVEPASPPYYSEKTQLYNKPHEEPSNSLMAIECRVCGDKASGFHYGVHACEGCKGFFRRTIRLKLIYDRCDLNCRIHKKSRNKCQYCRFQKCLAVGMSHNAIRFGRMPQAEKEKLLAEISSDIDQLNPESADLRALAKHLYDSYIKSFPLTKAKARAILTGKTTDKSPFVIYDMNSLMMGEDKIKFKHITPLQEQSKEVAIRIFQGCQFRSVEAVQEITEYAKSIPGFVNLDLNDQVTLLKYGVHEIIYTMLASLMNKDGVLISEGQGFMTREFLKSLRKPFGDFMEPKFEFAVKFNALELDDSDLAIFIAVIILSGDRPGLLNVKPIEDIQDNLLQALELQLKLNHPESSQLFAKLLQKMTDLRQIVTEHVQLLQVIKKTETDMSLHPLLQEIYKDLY
It counts as functional.

For test [3], the species on record is Mus musculus. Briefly: animal or person. It is filed as functional. To be noted: Serum.
The species named for test [4] is Mus musculus. It is filed as functional.
The species entered for test [5] is Mus musculus. Briefly: animal or person. It is filed as functional.
Test [6] addresses T1, Peroxisome proliferator-activated receptor alpha.
Test [7] concerns the target T3, Peroxisome proliferator-activated receptor delta (Homo sapiens, UniProt Q03181).
T3 sequence (Q03181 whole entry): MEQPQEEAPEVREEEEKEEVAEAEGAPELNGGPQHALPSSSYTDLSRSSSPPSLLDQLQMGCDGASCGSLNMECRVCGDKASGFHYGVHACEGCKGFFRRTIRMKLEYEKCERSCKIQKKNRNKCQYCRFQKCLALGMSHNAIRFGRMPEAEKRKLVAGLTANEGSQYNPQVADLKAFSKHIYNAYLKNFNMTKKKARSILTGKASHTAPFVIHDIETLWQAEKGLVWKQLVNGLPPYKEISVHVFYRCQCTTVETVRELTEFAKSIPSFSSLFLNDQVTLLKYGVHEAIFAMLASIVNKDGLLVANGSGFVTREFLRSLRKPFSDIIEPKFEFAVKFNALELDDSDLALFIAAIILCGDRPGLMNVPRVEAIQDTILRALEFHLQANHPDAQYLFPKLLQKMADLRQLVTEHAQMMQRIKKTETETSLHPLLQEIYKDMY

Test [8] is filed under the species Mus musculus. Briefly: animal or person. It is filed as functional. This is another data set of the same source.
Test [9] concerns the target T1, Peroxisome proliferator-activated receptor alpha. It is filed as functional. This is another data set of the same source.
In test [10] the target is T4, Peroxisome proliferator-activated receptor gamma (Homo sapiens) (UniProt P37231).
T4 sequence (whole entry): T2 sequence (P37231 whole entry)

The target in test [11] is T5, Peroxisome proliferator-activated receptor delta (Homo sapiens) (UniProt Q03181).
T5 sequence (whole entry): T3 sequence (Q03181 whole entry)

In test [12] the target is T5, Peroxisome proliferator-activated receptor delta (Homo sapiens). The source holds these as a separate data set.

Molecules are shown by their SMILES. Calls of active or inactive are those of the source. No cut-off for these calls is given here.

`CCCn1c(CCc2ccc(OC(C)(C)C(=O)O)cc2)nn(Cc2ccc(C)cc2)c1=O`: the EC50 in [1] came to 2800 nM; in test [2], 2900 nM.
Regarding `CC(C)OC(=O)C(C)(C)Oc1ccc(C(=O)c2ccc(Cl)cc2)cc1` [FENOFIBRATE], the results for the median effective dose (ED50) in the test listed under Mus musculus [3] and in the test filed under Mus musculus [5] were 79 mg/kg and 110 mg/kg, respectively. Also, the Increase in the test listed under Mus musculus [4] worked out at 120%.
Take `CCCn1c(CCCc2ccc(OC(C)(C)C(=O)O)cc2)nn(C(C)c2ccccc2)c1=O` (configuration not stated): the EC50 in [1] amounted to 220 nM. The half-inhibitory concentration (IC50) in test [6] is 220 nM; in test [7] it was 1500 nM.
In test [1], `Cc1ccc(Cn2nc(CCCc3ccc(OC(C)(C)C(=O)O)cc3)n(CCO)c2=O)cc1` showed a concentration giving a half-maximal response (EC50) of 88 nM. For the same compound, the IC50 in [6] stood at 27 nM; in [7], 4100 nM.
In the test listed under Mus musculus [4], `Cc1ccc(Cn2nc(CCCc3ccc(OC(C)(C)C(=O)O)cc3)nc2O)cc1` [LY-518674] came in with an Increase of 210%. In addition, the median effective dose (ED50) in the test listed under Mus musculus [8] is 0.1 mg/kg; in the test filed under Mus musculus [5] it was 0.3 mg/kg. The IC50 in test [7] is 3800 nM.
Consider `CCCCCCn1c(CCc2ccc(OC(C)(C)C(=O)O)cc2)nn(Cc2cccc(OC)c2)c1=O`, for which the values for the concentration giving a half-maximal response (EC50) in [1] and in [2] were 2200 nM and 2600 nM, respectively.
Consider `CC(C)(Oc1ccc(C(=O)c2ccc(Cl)cc2)cc1)C(=O)O` [FENOFIBRIC ACID], for which, in test [9], the 50% effective concentration (EC50) is 13000 nM. Moreover, the NB result in [10] and in test [11] was “inactive” throughout. The same compound came in with an IC50 in test [6] of 24000 nM.
Turning to `Cc1ccc(Cn2nc(CCCc3ccc(OC(C)(C)C(=O)O)cc3)n(CC(=O)O)c2=O)cc1`, a half-maximal effect in test [1] (EC50) was put at 2700 nM. The compound further returned an IC50 in test [6] of 960 nM. Besides, in test [12], the NB entry is “inactive”.
`CCCn1c(CCCc2ccc(OC(C)(C)C(=O)O)cc2)nn(Cc2cccc(OC)c2)c1=O` registered an EC50 in test [1] of 31 nM. The 50% inhibitory concentration (IC50) came to 19 nM in test [6] and 2000 nM in test [7].
